The values that follow come from US10130633B2, “Compounds” (BAYER PHARMA AKTIENGESELLSCHAFT, priority 2013, dated 2018).

Test [1] has as its system HCT116 FOP control reporter cell line. The experiment in a line: HCT116 FOPFlash control reporter assay (FOP control vector, non-functional TCF elements). The note with it: HCT116 FOP control reporter cells, 36 hours incubation, luciferase expression. In kind it is cell-based. The text has this:
In a parallel approach, HCT116 cells were cotransfected with the FOP control vector and pcDNA3. The FOP vector is identical to the TOP construct, but it contains instead of functional TCF elements a randomized, non-functional sequence. For this transfection a stable transfected cell line was generated as well.
In general terms: In a reporter assay the amount or activity of a reporter protein is the signal.

Test [2] deals with constitutive active colorectal cancer cell (CRC) Wnt pathway. The experiment in a line: HCT116 TOPFlash cellular reporter assay (Super TopFlash luciferase), constitutive active Wnt pathway. In kind it is cell-based. Conditions: HCT116 TOP reporter cells, 36 hours incubation, luciferase expression. Here is the method:
In order to discover and characterize small molecules which inhibit the constitutive active colorectal cancer cell (CRC) Wnt pathway, a cellular reporter assay was employed. […] Stable transfectants were generated by cotransfection with pcDNA3 and selection of stable transfected cells with 1 mg/ml G418.

A value given as a limit tells only on which side of the number the result lay.

As for `CC(C(=O)Nc1cc(NC(=O)c2ccc(-c3ccccc3F)nc2)ccc1OC(F)(F)F)N1CCOCC1` (stereo not shown) [Example 206, 6-(2-fluorophenyl)-N-[3-{[2-(morpholin-4-yl)propanoyl]amino}-4-(trifluoromethoxy)phenyl] nicotinamide], the IC50 in test [1] (Homo sapiens, HCT-116, 36 h) worked out at 36500 nM; in test [2], 87.6 nM.
For `CC(C(=O)Nc1cc(C(=O)Nc2ccc(-c3ccccc3F)nc2)ccc1C(F)(F)F)N1CCOCC1` (stereo not shown) [Example 207, N-[6-(2-fluorophenyl)pyridin-3-yl]-3-{[2-(morpholin-4-yl)propanoyl]amino}-4-(trifluoromethyl)benzamide], the IC50 was 8550 nM in test [1] and 153 nM in test [2].
As to `CN1CCN(CC(=O)Nc2cc(C(=O)Nc3ccc(-c4ccccc4F)nc3)ccc2C(F)(F)F)CC1` [Example 210, N-[6-(2-fluorophenyl)pyridin-3-yl]-3-{[(4-methylpiperazin-1-yl)acetyl]amino}-4-(trifluoromethyl)benzamide], the IC50 in test [1] (Homo sapiens, HCT-116, 36 h) came to 29500 nM; in test [2] (Homo sapiens, HCT-116, 36 h), 152 nM.
`CC(C(=O)Nc1cc(C(=O)Nc2ccc(-c3ccccc3F)nc2)ccc1C(F)(F)F)N1CCOCC1` (stereo not shown) [Example 211, N-[6-(2-fluorophenyl)pyridin-3-yl]-3-{[2-(morpholin-4-yl)propanoyl]amino}-4-(trifluoromethyl)benzamide]: the IC50 in test [1] turned out to be 24600 nM; in test [2], 40.2 nM.
In the same order, the values of `CC(C(=O)Nc1cc(NC(=O)c2ccc(-c3ccccc3F)nc2)ccc1OC(F)(F)F)N1CC2CCC(C1)O2` (stereo not shown) [Example 212, 6-(2-fluorophenyl)-N-[3-{[2-(8-oxa-3-azabicyclo[3.2.1]oct-3-yl)propanoyl]amino}-4-(trifluoromethoxy)phenyl] nicotinamide] are ≥ 50000 nM and 180 nM.
Turning to `CC(C(=O)Nc1cc(NC(=O)c2ccc(-c3ccccc3F)nc2)ccc1OC(F)(F)F)N1CCOCC1` (stereo not shown) [Example 213, 6-(2-fluorophenyl)-N-[3-{[2-(morpholin-4-yl)propanoyl]amino}-4-(trifluoromethoxy)phenyl] nicotinamide], the IC50 in test [1] is ≥ 50000 nM; in test [2], 140 nM.
`O=C(CN1C[C@@H]2C[C@H]1CO2)Nc1cc(C(=O)Nc2ccc(-c3cc(F)cc(F)c3)nc2)ccc1OC(F)(F)F` [Example 214, N-[6-(3,5-difluorophenyl)pyridin-3-yl]-3-{[(1S,4S)-2-oxa-5-azabicyclo[2.2.1]hept-5-ylacetyl]amino}-4-(trifluoromethoxy)benzamide]: the IC50 in test [1] (Homo sapiens, HCT-116, 36 h) is 6300 nM; in test [2] (Homo sapiens, HCT-116, 36 h) it was 375 nM.
Consider `CC(C(=O)Nc1cc(C(=O)Nc2ccc(-c3cc(F)cc(F)c3)nc2)ccc1OC(F)(F)F)N1CC2CCC(C1)O2` (stereo not shown) [Example 215, N-[6-(3,5-difluorophenyl)pyridin-3-yl]-3-{[2-(8-oxa-3-azabicyclo[3.2.1]oct-3-yl)propanoyl]amino}-4-(trifluoromethoxy)benzamide], for which the IC50 in test [1] came to 3300 nM; in test [2], 245 nM.
On to `O=C(CN1CC2CCC(C1)O2)Nc1cc(NC(=O)c2ccc(-c3cc(F)cc(F)c3)nc2)ccc1OC(F)(F)F` [Example 216, 6-(3,5-difluorophenyl)-N-{3-[(8-oxa-3-azabicyclo[3.2.1]oct-3-ylacetyl)amino]-4-(trifluoromethoxy)phenyl} nicotinamide], for which the IC50 in test [1] (Homo sapiens, HCT-116, 36 h) was 3600 nM; in test [2] (Homo sapiens, HCT-116, 36 h), 260 nM.
Take `CC(C(=O)Nc1cc(NC(=O)c2ccc(-c3cc(F)cc(F)c3)nc2)ccc1OC(F)(F)F)N1CC2CCC(C1)O2` (stereo not shown) [Example 218, 6-(3,5-difluorophenyl)-N-[3-{[2-(8-oxa-3-azabicyclo[3.2.1]oct-3-yl)propanoyl]amino}-4-(trifluoromethoxy)phenyl] nicotinamide]: the results for the IC50 in test [1] and in test [2] were 15000 nM and 330 nM, respectively.
Take `CC(C(=O)Nc1cc(NC(=O)c2ccc(-c3cc(F)cc(F)c3)nc2)ccc1OC(F)(F)F)N1CCOCC1` (stereo not shown) [Example 219, 6-(3,5-difluorophenyl)-N-[3-{[2-(morpholin-4-yl)propanoyl]amino}-4-(trifluoromethoxy)phenyl] nicotinamide]: the IC50 in test [1] is ≥ 50000 nM; in test [2] it was 245 nM.
In the same order, the values of `CC(C(=O)Nc1cc(NC(=O)c2ccc(-c3cccc(F)c3)nc2)ccc1OC(F)(F)F)N1CC2CCC(C1)O2` (stereo not shown) [Example 220, 6-(3-fluorophenyl)-N-[3-{[2-(8-oxa-3-azabicyclo[3.2.1]oct-3-yl)propanoyl]amino}-4-(trifluoromethoxy)phenyl] nicotinamide] are 13000 nM and 375 nM.
`CC(C(=O)Nc1cc(C(=O)Nc2ccc(-c3cc(F)cc(F)c3)nc2)ccc1OC(F)(F)F)N1CCOCC1` (stereo not shown) [Example 221, N-[6-(3,5-difluorophenyl)pyridin-3-yl]-3-{[2-(morpholin-4-yl)propanoyl]amino}-4-(trifluoromethoxy)benzamide]: the IC50 in test [1] was determined as 12200 nM; in test [2], 235 nM.
`CC(C(=O)Nc1cc(C(=O)Nc2ccc(-c3cc(F)cc(F)c3)nc2)ccc1OC(F)(F)F)N1C[C@@H]2C[C@H]1CO2` (stereo partly drawn) [Example 223, N-[6-(3,5-difluorophenyl)pyridin-3-yl]-3-({2-[(1S,4S)-2-oxa-5-azabicyclo[2.2.1]hept-5-yl]propanoyl}amino)-4-(trifluoromethoxy)benzamide]: the IC50 in test [1] (Homo sapiens, HCT-116, 36 h) was 17100 nM; in test [2] (Homo sapiens, HCT-116, 36 h), 238 nM.
On to `CC(C(=O)Nc1cc(NC(=O)c2ccc(-c3ccccc3F)nc2)ccc1OC(F)(F)F)N1CCOCC1` (stereo not shown) [Example 224, 6-(2-fluorophenyl)-N-[3-{[2-(morpholin-4-yl)propanoyl]amino}-4-(trifluoromethoxy)phenyl] nicotinamide], for which the IC50 is ≥ 50000 nM in test [1] and 382 nM in test [2].
In the case of `CC(C(=O)Nc1cc(C(=O)Nc2ccc(-c3ccccc3F)nc2)ccc1C(F)(F)F)N1CCOCC1` (stereo not shown) [Example 225, N-[6-(2-fluorophenyl)pyridin-3-yl]-3-{[2-(morpholin-4-yl)propanoyl]amino}-4-(trifluoromethyl)benzamide], the figures for the IC50 in test [1] and in test [2] were 11200 nM and 237 nM, respectively.
For the compound `O=C(CN1CC2CCC(C1)O2)Nc1cc(C(=O)Nc2ccc(-c3ccccc3F)nc2)ccc1C(F)(F)F` [Example 226, N-[6-(2-fluorophenyl)pyridin-3-yl]-3-[(8-oxa-3-azabicyclo[3.2.1]oct-3-ylacetyl)amino]-4-(trifluoromethyl)benzamide], the IC50 in test [1] (Homo sapiens, HCT-116, 36 h) came out at 6500 nM; in test [2] (Homo sapiens, HCT-116, 36 h), 245 nM.
As for `O=C(CN1CCN(C2CC2)CC1)Nc1cc(C(=O)Nc2ccc(-c3ccccc3F)nc2)ccc1C(F)(F)F` [Example 227, 3-{[(4-cyclopropylpiperazin-1-yl)acetyl]amino}-N-[6-(2-fluorophenyl)pyridin-3-yl]-4-(trifluoromethyl)benzamide], the IC50 was determined as 10200 nM in test [1] (Homo sapiens, HCT-116, 36 h) and 245 nM in test [2] (Homo sapiens, HCT-116, 36 h).
As for `CN(C(=O)CN1CCOCC1)c1cc(C(=O)Nc2ccc(-c3ccccc3)nc2)ccc1OC(F)(F)F` [Example 228, 3-[methyl(morpholin-4-ylacetyl)amino]-N-(6-phenylpyridin-3-yl)-4-(trifluoromethoxy)benzamide], the IC50 in test [1] (Homo sapiens, HCT-116, 36 h) is 29000 nM; in test [2] (Homo sapiens, HCT-116, 36 h), 2870 nM.
Regarding `COc1ccc(NC(=O)c2ccc(-c3ccc(F)cc3)nc2)cc1NC(=O)CN1CCOCC1` [Example 229, 6-(4-fluorophenyl)-N-{4-methoxy-3-[(morpholin-4-ylacetyl)amino]phenyl} nicotinamide], the 50% inhibitory concentration (IC50) was ≥ 50000 nM in test [1] (Homo sapiens, HCT-116, 36 h) and 2300 nM in test [2] (Homo sapiens, HCT-116, 36 h).
As for `CC(C(=O)Nc1cc(C(=O)Nc2nnc(-c3ccccc3)s2)ccc1CS(C)(=O)=O)N1CCN(C)CC1` (stereo not shown) [Example 231, 3-{[2-(4-methylpiperazin-1-yl)propanoyl]amino}-4-[(methylsulfonyl)methyl]-N-(5-phenyl-1,3,4-thiadiazol-2-yl)benzamide], the concentration for half-maximal inhibition (IC50) in test [1] (Homo sapiens, HCT-116, 36 h) is ≥ 50000 nM; in test [2], 1020 nM.
Take `CC(C(=O)Nc1cc(C(=O)Nc2nnc(-c3ccccc3)s2)ccc1CS(C)(=O)=O)N1CCN(C)CC1` (stereo not shown) [Example 232, 3-{[2-(4-methylpiperazin-1-yl)propanoyl]amino}-4-[(methylsulfonyl)methyl]-N-(5-phenyl-1,3,4-thiadiazol-2-yl)benzamide]: the IC50 in test [1] was ≥ 50000 nM; in test [2], 2200 nM.
In the case of `O=C(CN1CCN(CC(F)(F)F)CC1)Nc1cc(C(=O)Nc2ccc(-c3ccccc3F)nc2)ccc1OC(F)(F)F` [Example 233, N-[6-(2-fluorophenyl)pyridin-3-yl]-3-({[4-(2,2,2-trifluoroethyl)piperazin-1-yl]acetyl}amino)-4-(trifluoromethoxy)benzamide], the IC50 is ≥ 50000 nM in test [1] (Homo sapiens, HCT-116, 36 h) and 985 nM in test [2] (Homo sapiens, HCT-116, 36 h).
As for `CC(C(=O)Nc1cc(C(=O)Nc2nnc(-c3ccccc3)s2)ccc1OC(F)(F)F)N1CCN(C2CC2)CC1` (stereo not shown) [Example 234, 3-{[2-(4-cyclopropylpiperazin-1-yl)propanoyl]amino}-N-(5-phenyl-1,3,4-thiadiazol-2-yl)-4-(trifluoromethoxy)benzamide], the IC50 in test [1] (Homo sapiens, HCT-116, 36 h) was 40500 nM; in test [2] (Homo sapiens, HCT-116, 36 h), 635 nM.
Taken in the same sequence, the figures for `CS(=O)(=O)Cc1ccc(C(=O)Nc2nnc(-c3ccccc3)s2)cc1NC(=O)CN1CCOCC1` [Example 235, 4-[(methylsulfonyl)methyl]-3-[(morpholin-4-ylacetyl)amino]-N-(5-phenyl-1,3,4-thiadiazol-2-yl)benzamide] were ≥ 50000 nM and 1310 nM.
Turning to `CN1CCN(C2(C(=O)Nc3cc(C(=O)Nc4ccc(-c5ccccc5F)nc4)ccc3OC(F)(F)F)CC2)CC1` [Example 236, N-[6-(2-fluorophenyl)pyridin-3-yl]-3-({[1-(4-methylpiperazin-1-yl)cyclopropyl]carbonyl}amino)-4-(trifluoromethoxy)benzamide], the IC50 is ≥ 50000 nM in test [1] (Homo sapiens, HCT-116, 36 h) and 276 nM in test [2] (Homo sapiens, HCT-116, 36 h).

By IC50 is commonly meant the concentration that gives 50% inhibition. A high value points to weaker potency.
